Experimental data reported in patent US9757455B2, “Oral therapeutic compound delivery system” (Johnson & Johnson Consumer Inc., priority 2005, dated 2017).
Values after ≈ are worked out from the molar mass of the structure shown. Where a name gives a salt, the structure may show the parent alone. Read-outs that look alike come from different tables or passages of the source. Marks after values point to notes of the source that are not given here.

Legend:
[1] = Dissolution, USP dissolution apparatus 2, 900 mL 0.0033 N hydrochloric acid, 0 rpm, 37° C.; type: physicochemical; details: for % dissolved in 900 mL 0.0033 N HCl: basic and amphoteric drugs in formulations according to the invention (Table 32), 0 rpm
Protocol: (§1) Testing was conducted in a dissolution medium containing 900 mL 0.0033 N hydrochloric acid (HCl) at 37° C. which discriminates better between fast dissolving formulations than more acidic dissolution media where the effect of high acid concentration tends to mask formulation effects on dissolution. 900 mL of this medium contains the absolute amount of acid estimated to be present in the gastric contents in vivo, namely 3 millimoles.
Dissolution results without stirring may be of in vivo significance in conditions where there is gut stasis or reduced gastric activity.
(§2) Testing at was conducted at a stirring speed of 30 rpm and also at 0 rpm which provides more discrimination between formulations. To achieve maximum dissolution, the stirring speed was increased to 250 rpm for 10 minutes after 20 minutes for measurements at 30 rpm, and after 60 minutes for measurements at 0 rpm.
(§3) Unless otherwise stated, drug concentrations were measured using a Varian Cary 50 UV-Vis Spectrophotometer set at an appropriate wavelength using flow through cells for automatic continuous sampling. For each drug, the optimal wavelength was selected after running UV scans in the dissolution medium.

[2] = Dissolution, USP dissolution apparatus 2, 900 mL 0.0033 N hydrochloric acid, 30 rpm, 37° C.; type: physicochemical; details: basic and amphoteric drugs in formulations according to the invention (Table 32)
Protocol: as §1, §2, §3
A suitable C18 column and guard column were used. Results were processed using Waters Empower software.

Solubility in water = details: for solubility: water
[3] = Effect of different alkaline agents on paracetamol absorption in vivo (5 subject crossover studies, plasma paracetamol); details: human, oral, 1000 mg, two tablets each 500 mg paracetamol, fasted, read-out: Median AUC20 (converted)
Protocol: In a series of multiple 5 subject crossover studies, the effect of a range of different formulations containing different alkali agents on in vivo absorption were investigated. Subjects were fasted overnight and dosed with two tablets each containing 500 mg paracetamol. Plasma levels of paracetamol were monitored for 8 hours, with 10 samples taken in the first hour.

[4] = pH modulating agent: Bicarb + acid, 300 sec (Table 33)
[5] = pH modulating agent: Bicarb + acid, 15 min (Table 33)
[6] = pH modulating agent: Bicarb + acid, 30 min (Table 33)
[7] = pH modulating agent: Bicarbonate, 300 sec (Table 33)
[8] = pH modulating agent: Bicarbonate, 15 min (Table 33)
[9] = pH modulating agent: Bicarbonate, 30 min (Table 33)
[10] = 30 minutes, 30 rpm (increased to 250 rpm after 20 minutes)
[11] = dose (mg) of each drug as in Table 78

Row | Structure (SMILES) | % dissolved in 900 mL 0.0033 N HCl ([1]; 180 sec) [%] | % dissolved in 900 mL 0.0033 N HCl ([1]; 300 sec) [%] | % dissolved in 900 mL 0.0033 N HCl ([1]; 15 minutes) [%] | % dissolved in 900 mL 0.0033 N HCl ([1]; 30 minutes) [%] | % dissolved in 900 mL 0.0033 N HCl ([2]; 180 sec, 30 rpm) [%] | % dissolved in 900 mL 0.0033 N HCl ([2]; 300 sec, 30 rpm) [%] | % dissolved in 900 mL 0.0033 N HCl ([2]; 15 minutes, 30 rpm) [%] | % dissolved in 900 mL 0.0033 N HCl [2, 10] [%] | Volume (mL) of water to dissolve dose (Solubility in water; [11]) [mL] | Effect of ↑ pH on solubility (Solubility in water) | also measured
1 | Cc1nnc2n1-c1ccc(Cl)cc1C(c1ccccc1)=NC2 [Alprazolam] | 13 | 20 | 45 | 63 | 61 | 67 | 77 | 100 | 14 |  | % drug dissolved in 900 mL 0.0033 N HCl at 0 rpm [1, 4]: 20%; % drug dissolved in 900 mL 0.0033 N HCl at 0 rpm [1, 5]: 45%; % drug dissolved in 900 mL 0.0033 N HCl at 0 rpm [1, 6]: 63%; % drug dissolved in 900 mL 0.0033 N HCl at 0 rpm [1, 7]: 1%; % drug dissolved in 900 mL 0.0033 N HCl at 0 rpm [1, 8]: 4%; % drug dissolved in 900 mL 0.0033 N HCl at 0 rpm [1, 9]: 4%
2 | Cc1ccc(-c2cc(C(F)(F)F)nn2-c2ccc(S(N)(=O)=O)cc2)cc1 [Celecoxib] |  |  |  |  |  |  |  |  |  | ⇄ | solubility (Solubility in water): 3.46 µg/mL (≈ 9.07 µM)
3 | C[C@@H]1C[C@H]2[C@@H]3CCC4=CC(=O)C=C[C@]4(C)[C@@]3(F)[C@@H](O)C[C@]2(C)[C@@]1(O)C(=O)CO [Dexamethasone] |  |  |  |  |  |  |  |  |  | ⇄ | 
4 | O=C(O)Cc1ccccc1Nc1c(Cl)cccc1Cl [Diclofenac potassium] |  |  |  |  |  |  |  |  |  | ↑ | Volume of water (mL) to dissolve dose (Solubility in water; dose per tablet as in label): 7 mL; solubility (Solubility in water): 10000 µg/mL
5 | CN1CCC[C@@H]1Cc1c[nH]c2ccc(CCS(=O)(=O)c3ccccc3)cc12 [Eletriptan hydrochloride, Eletriptan hydrobromide] | 88 | 95 | 98 | 100 | 94 | 96 | 97 | 99 | 4 |  | 
6 | Cc1ccc(C)c(OCCCC(C)(C)C(=O)O)c1 [Gemfibrozil] |  |  |  |  |  |  |  |  |  | ↑ | Volume of water (mL) to dissolve dose (Solubility in water; dose per tablet as in label): 20,690 mL; solubility (Solubility in water): 29 µg/mL (≈ 116 µM)
7 | CC(C)Cc1ccc(C(C)C(=O)O)cc1 (stereo not shown) [Ibuprofen] |  |  |  |  |  |  |  |  |  | ↑ | solubility (Solubility in water): 40 µg/mL (≈ 194 µM)
8 | CN(C)C(=O)C(CCN1CCC(O)(c2ccc(Cl)cc2)CC1)(c1ccccc1)c1ccccc1 [Loperamide hydrochloride] | 70 | 72 | 87 | 95 | 82 | 84 | 89 | 100 |  |  | % drug dissolved in 900 mL 0.0033 N HCl at 0 rpm [1, 4]: 72%; % drug dissolved in 900 mL 0.0033 N HCl at 0 rpm [1, 5]: 87%; % drug dissolved in 900 mL 0.0033 N HCl at 0 rpm [1, 6]: 95%; % drug dissolved in 900 mL 0.0033 N HCl at 0 rpm [1, 7]: 27%; % drug dissolved in 900 mL 0.0033 N HCl at 0 rpm [1, 8]: 43%; % drug dissolved in 900 mL 0.0033 N HCl at 0 rpm [1, 9]: 101%; Volume (mL) of water to dissolve dose (Solubility in water): 2 mL
9 | O=C1Nc2ccc(Cl)cc2C(c2ccccc2Cl)=NC1O (stereo not shown) [Lorazepam] | 77 | 85 | 95 | 99 | 77 | 88 | 96 | 100 |  |  | % drug dissolved in 900 mL 0.0033 N HCl at 0 rpm [1, 4]: 85%; % drug dissolved in 900 mL 0.0033 N HCl at 0 rpm [1, 5]: 95%; % drug dissolved in 900 mL 0.0033 N HCl at 0 rpm [1, 6]: 99%; % drug dissolved in 900 mL 0.0033 N HCl at 0 rpm [1, 7]: 6%; % drug dissolved in 900 mL 0.0033 N HCl at 0 rpm [1, 8]: 6%; % drug dissolved in 900 mL 0.0033 N HCl at 0 rpm [1, 9]: 11%
10 | CCN(CC)CCNC(=O)c1cc(Cl)c(N)cc1OC [Metoclopramide hydrochloride] | 26 | 69 | 86 | 91 | 94 | 95 | 97 | 100 | 50 |  | % drug dissolved in 900 mL 0.0033 N HCl at 0 rpm [1, 4]: 69%; % drug dissolved in 900 mL 0.0033 N HCl at 0 rpm [1, 5]: 86%; % drug dissolved in 900 mL 0.0033 N HCl at 0 rpm [1, 6]: 91%; % drug dissolved in 900 mL 0.0033 N HCl at 0 rpm [1, 7]: 5%; % drug dissolved in 900 mL 0.0033 N HCl at 0 rpm [1, 8]: 28%; % drug dissolved in 900 mL 0.0033 N HCl at 0 rpm [1, 9]: 46%
11 | Cc1nccn1CC1CCc2c(c3ccccc3n2C)C1=O (stereo not shown) [Ondansetron hydrochloride] | 50 | 65 | 79 | 85 | 88 | 96 | 100 | 100 | 4 |  | Solubility in water (Solubility in water): 2.42 mg/mL
12 | CC(=O)Nc1ccc(O)cc1 [Paracetamol] |  |  |  |  |  |  |  |  |  | ⇄ | AUC ([3]; Magnesium carbonate, dose 150 mg): 1140 ng·h/mL; AUC ([3]; Magnesium carbonate, dose 300 mg): 2010 ng·h/mL; AUC ([3]; Sodium bicarbonate, dose 200 mg): 3810 ng·h/mL; AUC ([3]; Sodium bicarbonate, dose 400 mg): 4760 ng·h/mL; AUC ([3]; Sodium bicarbonate, dose 800 mg): 4400 ng·h/mL; AUC ([3]; Sodium bicarbonate, dose 1200 mg): 2680 ng·h/mL; AUC ([3]; alkaline agent None, dose 0 mg): 1590 ng·h/mL; Volume of water (mL) to dissolve dose (Solubility in water; dose per tablet as in label): 36 mL; water needed for total dissolution of the dose (Solubility in water; doses of Example 33 (tramadol hydrochloride 37.5 mg, paracetamol 325 mg)): around 27 mL; solubility (Solubility in water): ~14000 µg/mL (≈ 92600 µM)
13 | C[C@]12C=CC(=O)C=C1CC[C@@H]1[C@@H]2[C@@H](O)C[C@@]2(C)[C@H]1CC[C@]2(O)C(=O)CO [Prednisolone] |  |  |  |  |  |  |  |  |  |  | Volume of water (mL) to dissolve dose (Solubility in water; dose per tablet as in label, listed as Prednisolone 5 mg): 23 mL; Volume of water (mL) to dissolve dose (Solubility in water; dose per tablet as in label, listed as Prednisolone 25 mg): 114 mL
14 | CN(C)CCc1c[nH]c2ccc(Cn3cncn3)cc12 [Rizatriptan benzoate] | 94 |  | 100 | 100 | 96 | 96 | 96 | 97 | 0.3 |  | Solubility in water (Solubility in water; solubility of the base not salt): 42* mg/mL
15 | CN1C(=O)C(O)N=C(c2ccccc2)c2cc(Cl)ccc21 (stereo not shown) [Temazepam] |  |  |  |  |  |  |  |  |  |  | Volume of water (mL) to dissolve dose (Solubility in water): 83 mL
16 | COc1cccc(C2(O)CCCCC2CN(C)C)c1 (stereo not shown) [Tramadol hydrochloride] | 87 | 95 | 99 | 100 | 100 | 100 | 100 | 100 |  |  | Volume (mL) of water to dissolve dose (Solubility in water): 1.3 mL; water needed for total dissolution of the dose (Solubility in water): around 1 mL; solubility (physchem): ~30000 µg/mL; solubility (physchem; water): ~30000 µg/mL
17 | CN(C)CCc1c[nH]c2ccc(C[C@H]3COC(=O)N3)cc12 [Zolmitriptan] | 66 | 77 | 88 | 96 | 73 | 76 | 86 | 98 | 2 |  | 
18 | Cc1ccc(-c2nc3ccc(C)cn3c2CC(=O)N(C)C)cc1 [Zolpidem tartrate] | 77 | 91 | 94 | 96 | 96 | 96 | 97 | 98 | 0.4 |  | 
